In ChEMBL document CHEMBL1909046, “DrugMatrix in vitro pharmacology data”:

What was measured:
[1] = molecular target: T1, Alpha-2C adrenergic receptor (Homo sapiens, UniProt P18825); assay: DRUGMATRIX: Adrenergic Alpha-2C radioligand binding (ligand: [3H] MK-912); type: cell membranes, Sf9, Membrane; settings: sf9
T1 sequence (P18825 whole entry): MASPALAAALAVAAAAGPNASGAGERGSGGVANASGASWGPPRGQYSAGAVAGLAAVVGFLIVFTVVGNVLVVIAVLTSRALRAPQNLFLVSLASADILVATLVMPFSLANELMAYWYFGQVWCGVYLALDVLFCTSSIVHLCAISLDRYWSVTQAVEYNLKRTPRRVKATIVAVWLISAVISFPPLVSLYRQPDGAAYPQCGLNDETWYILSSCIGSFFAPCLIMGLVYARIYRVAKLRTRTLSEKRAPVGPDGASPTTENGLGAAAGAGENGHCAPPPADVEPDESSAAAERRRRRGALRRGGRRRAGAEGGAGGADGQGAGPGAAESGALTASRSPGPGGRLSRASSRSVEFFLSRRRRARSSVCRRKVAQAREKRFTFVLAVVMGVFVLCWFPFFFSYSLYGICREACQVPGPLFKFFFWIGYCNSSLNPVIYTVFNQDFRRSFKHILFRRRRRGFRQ

[2] = DRUGMATRIX: Serotonin (5-Hydroxytryptamine) 5-HT3 radioligand binding (ligand: [3H] GR-65630); type: cell membranes, Membrane; settings: hek293; Not Active = under 50% inhibition at 10 µM
Substance-P receptor = Substance-P receptor (Homo sapiens, UniProt P25103); type: cell membranes, CHO, Membrane; settings: cho; note: in other assays of this panel Not Active means under 50% inhibition at 10 µM
[3] = molecular target: Prostaglandin G/H synthase 1 (Homo sapiens, UniProt P23219); assay: biochemical; type: tissue-based, Platelet; settings: platelet;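 note: inhibition of COX-1 enzyme activity, with arachidonic acid supplied as substrate; in other assays of this panel Not Active means under 50% inhibition at 10 µM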
Endothelin-1 receptor = molecular target: T2, Endothelin-1 receptor (Homo sapiens, UniProt P25101); type: cell membranes, Membrane; settings: cho-k1; note: in other assays of this panel Not Active means under 50% inhibition at 10 µM
T2 sequence (P25101 whole entry): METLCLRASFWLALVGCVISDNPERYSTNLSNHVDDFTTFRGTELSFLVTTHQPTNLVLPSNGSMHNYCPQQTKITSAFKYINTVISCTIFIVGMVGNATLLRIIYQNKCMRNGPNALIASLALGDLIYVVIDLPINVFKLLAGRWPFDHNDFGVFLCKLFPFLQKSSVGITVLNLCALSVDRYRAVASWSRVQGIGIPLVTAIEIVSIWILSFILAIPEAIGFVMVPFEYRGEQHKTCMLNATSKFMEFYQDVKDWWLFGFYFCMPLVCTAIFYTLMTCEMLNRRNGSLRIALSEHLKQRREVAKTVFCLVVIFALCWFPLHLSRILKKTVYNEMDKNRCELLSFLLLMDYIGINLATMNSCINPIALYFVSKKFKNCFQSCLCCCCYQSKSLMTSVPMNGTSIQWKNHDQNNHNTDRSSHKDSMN

[4] = DRUGMATRIX: Glutamate, Kainate radioligand binding (ligand: [3H] Kainic acid); type: cell membranes, Rattus norvegicus, Wistar, Brain, Membrane; settings: Not Active = under 50% inhibition at 10 µM
Mu-type opioid receptor = Mu-type opioid receptor (Homo sapiens, UniProt P35372); assay: DRUGMATRIX: Opiate mu (OP3, MOP) radioligand binding (ligand: [3H] Diprenorphine); type: cell membranes, CHO-K1, Membrane; settings: cho-k1; Not Active = under 50% inhibition at 10 µM
[5] = DRUGMATRIX: Potassium Channel [KATP] radioligand binding (ligand: [3H] Glyburide); type: cell membranes, Membrane; settings: hit-t15; Not Active = under 50% inhibition at 10 µM
[6] = molecular target: T3, Angiotensin-converting enzyme (Oryctolagus cuniculus, UniProt P12822); assay: biochemical; type: tissue-based, Lung;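 note: enzymatic inhibition of angiotensin-converting enzyme measured with FAPGG as the substrate; in other assays of this panel Not Active means under 50% inhibition at 10 µM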
T3 sequence (P12822 whole entry): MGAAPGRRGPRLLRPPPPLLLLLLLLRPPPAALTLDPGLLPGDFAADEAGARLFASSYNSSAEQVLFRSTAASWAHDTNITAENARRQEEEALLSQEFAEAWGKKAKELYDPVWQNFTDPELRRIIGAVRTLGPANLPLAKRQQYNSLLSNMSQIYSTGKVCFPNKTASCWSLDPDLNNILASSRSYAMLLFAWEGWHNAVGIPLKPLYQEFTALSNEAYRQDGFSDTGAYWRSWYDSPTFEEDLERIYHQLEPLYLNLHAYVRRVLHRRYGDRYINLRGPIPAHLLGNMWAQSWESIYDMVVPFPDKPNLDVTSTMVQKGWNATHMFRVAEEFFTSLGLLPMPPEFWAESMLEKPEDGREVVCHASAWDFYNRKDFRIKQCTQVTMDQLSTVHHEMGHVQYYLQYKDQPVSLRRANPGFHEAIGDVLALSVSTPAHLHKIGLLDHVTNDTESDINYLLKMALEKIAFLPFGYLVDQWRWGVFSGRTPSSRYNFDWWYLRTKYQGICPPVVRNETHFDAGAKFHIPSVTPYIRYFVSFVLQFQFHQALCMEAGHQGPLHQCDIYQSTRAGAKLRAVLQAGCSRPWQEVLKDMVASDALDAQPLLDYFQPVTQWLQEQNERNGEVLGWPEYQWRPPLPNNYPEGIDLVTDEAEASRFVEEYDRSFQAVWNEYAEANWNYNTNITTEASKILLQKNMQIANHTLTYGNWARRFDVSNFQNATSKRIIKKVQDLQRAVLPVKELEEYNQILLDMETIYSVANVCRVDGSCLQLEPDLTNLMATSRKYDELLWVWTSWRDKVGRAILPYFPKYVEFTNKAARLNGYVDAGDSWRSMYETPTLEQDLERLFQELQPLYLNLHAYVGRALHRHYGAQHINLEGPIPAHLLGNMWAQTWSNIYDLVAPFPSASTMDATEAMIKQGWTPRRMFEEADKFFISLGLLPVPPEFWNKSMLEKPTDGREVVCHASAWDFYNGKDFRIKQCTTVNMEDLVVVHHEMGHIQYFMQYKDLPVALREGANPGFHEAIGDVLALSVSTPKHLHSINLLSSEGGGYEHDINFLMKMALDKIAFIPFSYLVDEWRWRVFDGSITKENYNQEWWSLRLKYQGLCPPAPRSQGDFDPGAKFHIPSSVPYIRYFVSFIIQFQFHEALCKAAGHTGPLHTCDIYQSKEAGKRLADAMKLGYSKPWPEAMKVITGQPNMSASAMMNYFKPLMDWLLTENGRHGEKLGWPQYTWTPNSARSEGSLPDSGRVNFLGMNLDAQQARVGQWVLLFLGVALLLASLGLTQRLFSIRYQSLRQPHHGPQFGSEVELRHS

[7] = molecular target: Voltage-gated inwardly rectifying potassium channel KCNH2 (Homo sapiens, UniProt Q12809); settings: hek293; note: in other assays of this panel Not Active means under 50% inhibition at 10 µM
[8] = molecular target: Beta-3 adrenergic receptor (Homo sapiens, UniProt P13945); assay: DRUGMATRIX: Adrenergic beta3 radioligand binding (ligand: [125I] Cyanopindolol); type: cell membranes, HEK293, Membrane; settings: hek293; Not Active = under 50% inhibition at 10 µM
Cytochrome P450 2C19 = Cytochrome P450 2C19 (Homo sapiens, UniProt P33261); settings: bti-tn-5b1-4; note: in other assays of this panel Not Active means under 50% inhibition at 10 µM
Cytochrome P450 2C19, sequence (P33261 whole entry): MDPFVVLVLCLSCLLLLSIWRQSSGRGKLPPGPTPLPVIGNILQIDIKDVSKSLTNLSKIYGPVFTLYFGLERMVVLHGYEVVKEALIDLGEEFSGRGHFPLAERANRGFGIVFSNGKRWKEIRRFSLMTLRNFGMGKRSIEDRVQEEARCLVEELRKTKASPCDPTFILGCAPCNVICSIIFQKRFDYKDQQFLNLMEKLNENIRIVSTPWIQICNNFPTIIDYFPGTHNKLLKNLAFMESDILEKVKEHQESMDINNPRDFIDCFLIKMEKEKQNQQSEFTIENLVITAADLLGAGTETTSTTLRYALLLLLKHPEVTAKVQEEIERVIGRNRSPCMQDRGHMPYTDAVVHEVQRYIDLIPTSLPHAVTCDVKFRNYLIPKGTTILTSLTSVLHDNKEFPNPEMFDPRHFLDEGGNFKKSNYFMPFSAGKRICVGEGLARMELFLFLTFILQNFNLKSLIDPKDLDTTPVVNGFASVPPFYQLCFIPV

Voltage-gated inwardly rectifying potassium channel KCNH2, sequence (Q12809 whole entry): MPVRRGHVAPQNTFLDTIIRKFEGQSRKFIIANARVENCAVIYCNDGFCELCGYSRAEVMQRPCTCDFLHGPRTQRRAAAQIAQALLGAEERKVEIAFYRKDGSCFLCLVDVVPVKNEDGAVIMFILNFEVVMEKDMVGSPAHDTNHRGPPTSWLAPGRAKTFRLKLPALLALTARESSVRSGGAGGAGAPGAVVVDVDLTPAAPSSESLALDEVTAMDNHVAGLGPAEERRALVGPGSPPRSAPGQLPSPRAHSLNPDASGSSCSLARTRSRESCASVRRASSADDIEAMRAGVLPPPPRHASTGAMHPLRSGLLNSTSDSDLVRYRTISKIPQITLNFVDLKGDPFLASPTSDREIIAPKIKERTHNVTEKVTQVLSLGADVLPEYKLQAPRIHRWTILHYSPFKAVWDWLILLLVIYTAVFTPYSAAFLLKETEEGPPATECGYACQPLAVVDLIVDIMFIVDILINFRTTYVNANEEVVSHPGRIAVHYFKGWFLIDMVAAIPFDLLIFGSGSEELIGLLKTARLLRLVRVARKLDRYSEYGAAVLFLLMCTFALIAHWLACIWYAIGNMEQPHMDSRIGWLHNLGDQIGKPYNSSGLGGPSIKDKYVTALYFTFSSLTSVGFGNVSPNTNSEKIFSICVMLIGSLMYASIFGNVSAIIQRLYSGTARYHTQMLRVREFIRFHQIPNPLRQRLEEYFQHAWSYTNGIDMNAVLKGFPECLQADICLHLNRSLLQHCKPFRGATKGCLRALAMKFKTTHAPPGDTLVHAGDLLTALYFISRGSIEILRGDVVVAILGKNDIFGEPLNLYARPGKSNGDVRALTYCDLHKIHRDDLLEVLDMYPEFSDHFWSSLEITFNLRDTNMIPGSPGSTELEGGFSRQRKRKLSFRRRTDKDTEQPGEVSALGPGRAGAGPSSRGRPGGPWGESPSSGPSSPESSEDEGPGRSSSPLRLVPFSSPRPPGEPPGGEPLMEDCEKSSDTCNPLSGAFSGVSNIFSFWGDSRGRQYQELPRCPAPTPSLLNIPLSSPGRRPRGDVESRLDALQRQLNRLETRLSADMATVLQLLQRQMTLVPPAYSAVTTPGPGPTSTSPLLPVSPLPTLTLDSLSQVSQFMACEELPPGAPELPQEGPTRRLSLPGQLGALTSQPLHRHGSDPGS
Mu-type opioid receptor, sequence (P35372 whole entry): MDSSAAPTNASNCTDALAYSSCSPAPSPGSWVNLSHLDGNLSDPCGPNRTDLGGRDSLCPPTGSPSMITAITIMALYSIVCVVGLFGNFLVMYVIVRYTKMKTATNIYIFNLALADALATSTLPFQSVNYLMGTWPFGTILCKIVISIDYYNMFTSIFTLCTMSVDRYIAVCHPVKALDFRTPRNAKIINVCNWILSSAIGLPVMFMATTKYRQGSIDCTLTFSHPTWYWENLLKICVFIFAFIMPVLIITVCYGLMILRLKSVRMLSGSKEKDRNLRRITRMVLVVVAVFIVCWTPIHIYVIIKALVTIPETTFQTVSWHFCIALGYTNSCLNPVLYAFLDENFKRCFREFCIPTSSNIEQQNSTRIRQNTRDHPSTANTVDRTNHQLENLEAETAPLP
Prostaglandin G/H synthase 1, sequence (P23219 whole entry): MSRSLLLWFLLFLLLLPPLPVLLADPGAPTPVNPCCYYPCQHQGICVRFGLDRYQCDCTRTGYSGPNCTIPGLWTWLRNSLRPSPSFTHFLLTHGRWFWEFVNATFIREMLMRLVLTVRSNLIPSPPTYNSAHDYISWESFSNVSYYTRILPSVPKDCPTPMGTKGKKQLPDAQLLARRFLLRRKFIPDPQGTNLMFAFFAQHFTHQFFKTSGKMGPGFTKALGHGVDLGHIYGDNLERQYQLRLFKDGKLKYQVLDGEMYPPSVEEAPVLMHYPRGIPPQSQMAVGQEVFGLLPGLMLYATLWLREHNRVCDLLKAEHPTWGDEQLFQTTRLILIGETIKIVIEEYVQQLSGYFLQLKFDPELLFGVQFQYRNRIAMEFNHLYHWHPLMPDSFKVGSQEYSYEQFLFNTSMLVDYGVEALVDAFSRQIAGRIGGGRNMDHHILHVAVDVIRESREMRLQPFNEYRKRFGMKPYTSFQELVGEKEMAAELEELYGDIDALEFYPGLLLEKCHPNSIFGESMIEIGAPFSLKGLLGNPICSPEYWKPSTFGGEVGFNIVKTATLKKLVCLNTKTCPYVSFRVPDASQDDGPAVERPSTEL
Beta-3 adrenergic receptor, sequence (P13945 whole entry): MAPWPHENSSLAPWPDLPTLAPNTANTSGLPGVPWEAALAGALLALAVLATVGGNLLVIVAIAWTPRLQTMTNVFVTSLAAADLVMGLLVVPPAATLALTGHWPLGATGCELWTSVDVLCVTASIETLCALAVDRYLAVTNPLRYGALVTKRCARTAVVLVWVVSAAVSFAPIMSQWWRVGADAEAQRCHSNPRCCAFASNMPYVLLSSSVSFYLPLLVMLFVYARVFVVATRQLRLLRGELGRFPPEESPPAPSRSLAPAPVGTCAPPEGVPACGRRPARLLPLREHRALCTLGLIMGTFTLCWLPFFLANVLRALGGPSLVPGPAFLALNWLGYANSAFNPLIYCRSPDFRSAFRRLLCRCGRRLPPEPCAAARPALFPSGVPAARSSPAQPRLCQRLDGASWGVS
Substance-P receptor, sequence (P25103 whole entry): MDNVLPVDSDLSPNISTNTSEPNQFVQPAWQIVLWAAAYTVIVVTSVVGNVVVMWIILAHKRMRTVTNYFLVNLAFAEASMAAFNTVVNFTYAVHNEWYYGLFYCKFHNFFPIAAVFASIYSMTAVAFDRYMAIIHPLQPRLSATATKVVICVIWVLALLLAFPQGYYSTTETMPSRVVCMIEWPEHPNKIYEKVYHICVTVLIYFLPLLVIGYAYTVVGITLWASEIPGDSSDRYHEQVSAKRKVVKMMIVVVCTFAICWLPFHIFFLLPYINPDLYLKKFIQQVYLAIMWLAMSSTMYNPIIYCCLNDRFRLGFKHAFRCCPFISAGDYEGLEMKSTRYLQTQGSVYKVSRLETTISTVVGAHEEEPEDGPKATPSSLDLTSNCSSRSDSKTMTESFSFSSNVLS

CC(C)NC[C@H](O)COc1cccc2[nH]ccc12
Not Active: IC50 [1] | IC50 [2] | Ki [2] | IC50 (Substance-P receptor) | IC50 [3] | IC50 (Endothelin-1 receptor) | IC50 [4] | Ki [4] | IC50 (Mu-type opioid receptor) | IC50 [5] | Ki [5] | IC50 [6] | IC50 [7] | Ki [7]

O=C(O)c1cn(C2CC2)c2cc(N3CCNCC3)c(F)cc2c1=O [CIPROFLOXACIN]
Not Active: IC50 [1] | IC50 [8] | IC50 [2] | Ki [2] | IC50 (Substance-P receptor) | IC50 [3] | IC50 (Endothelin-1 receptor) | IC50 [4] | Ki [4] | IC50 (Mu-type opioid receptor) | IC50 [5] | Ki [5] | IC50 [6]

CCc1cccc2c3c([nH]c12)C(CC)(CC(=O)O)OCC3 (configuration not stated) [ETODOLAC]
Not Active: IC50 [1] | IC50 [8] | IC50 [2] | Ki [2] | IC50 (Substance-P receptor) | IC50 (Endothelin-1 receptor) | IC50 [4] | Ki [4] | IC50 (Mu-type opioid receptor) | IC50 [5] | Ki [5] | IC50 [6] | IC50 (Cytochrome P450 2C19) | Ki (Cytochrome P450 2C19) | IC50 [7] | Ki [7]

O=C1OCCN1/N=C/c1ccc([N+](=O)[O-])o1 [FURAZOLIDONE]
Not Active: IC50 [1] | IC50 [8] | IC50 [2] | Ki [2] | IC50 (Substance-P receptor) | IC50 [3] | IC50 (Endothelin-1 receptor) | IC50 [4] | Ki [4] | IC50 (Mu-type opioid receptor) | IC50 [5] | Ki [5] | IC50 [6]

CNCCC=C1c2ccccc2CCc2ccccc21 [NORTRIPTYLINE]
Not Active: IC50 [8] | IC50 [2] | Ki [2] | IC50 (Substance-P receptor) | IC50 [3] | IC50 (Endothelin-1 receptor) | IC50 [4] | Ki [4] | IC50 (Mu-type opioid receptor) | IC50 [5] | Ki [5] | IC50 [6] | IC50 [7] | Ki [7]

CN1C(C(=O)Nc2ccccn2)=C(O)c2ccccc2S1(=O)=O [PIROXICAM]
Not Active: IC50 [1] | IC50 [8] | IC50 [2] | Ki [2] | IC50 (Substance-P receptor) | IC50 (Endothelin-1 receptor) | IC50 [4] | Ki [4] | IC50 (Mu-type opioid receptor) | IC50 [5] | Ki [5] | IC50 [6] | IC50 (Cytochrome P450 2C19) | Ki (Cytochrome P450 2C19) | IC50 [7] | Ki [7]

CISPLATIN
Not Active: IC50 [1] | Ki [1] | IC50 [8] | Ki [8] | IC50 [2] | Ki [2] | IC50 (Substance-P receptor) | Ki (Substance-P receptor) | IC50 [3] | Ki [3] | IC50 (Endothelin-1 receptor) | Ki (Endothelin-1 receptor) | IC50 [4] | Ki [4] | IC50 [5] | Ki [5] | IC50 [6] | Ki [6] | IC50 (Cytochrome P450 2C19) | Ki (Cytochrome P450 2C19) | IC50 [7] | Ki [7]

GOLD SODIUM THIOMALATE
Not Active: IC50 [1] | Ki [1] | IC50 [8] | Ki [8] | IC50 [2] | Ki [2] | IC50 (Substance-P receptor) | Ki (Substance-P receptor) | IC50 [3] | Ki [3] | IC50 (Endothelin-1 receptor) | Ki (Endothelin-1 receptor) | IC50 [4] | Ki [4] | IC50 [5] | Ki [5] | IC50 [6] | Ki [6] | IC50 (Cytochrome P450 2C19) | Ki (Cytochrome P450 2C19) | IC50 [7] | Ki [7]

OXALIPLATIN
Not Active: IC50 [1] | Ki [1] | IC50 [8] | Ki [8] | IC50 [2] | Ki [2] | IC50 (Substance-P receptor) | Ki (Substance-P receptor) | IC50 [3] | Ki [3] | IC50 (Endothelin-1 receptor) | Ki (Endothelin-1 receptor) | IC50 [4] | Ki [4] | IC50 [5] | Ki [5] | IC50 [6] | Ki [6] | IC50 (Cytochrome P450 2C19) | Ki (Cytochrome P450 2C19) | IC50 [7] | Ki [7]
